From ChEMBL document CHEMBL5653604, “ZSTK474, a novel phosphatidylinositol 3-kinase inhibitor identified using the JFCR39 drug discovery system” (Acta Pharmacol Sin, 2010) come the findings set out here.

Test [1] addresses Phosphatidylinositol 4,5-bisphosphate 3-kinase catalytic subunit beta isoform (Homo sapiens, UniProt P42338). Briefly: Inhibition of p110 beta (unknown origin).
The target of test [2] is Phosphatidylinositol 4,5-bisphosphate 3-kinase catalytic subunit gamma isoform (Homo sapiens, UniProt P48736). Briefly: Inhibition of p110 gamma (unknown origin).
Sequence of Phosphatidylinositol 4,5-bisphosphate 3-kinase catalytic subunit gamma isoform (P48736 whole entry, canonical isoform): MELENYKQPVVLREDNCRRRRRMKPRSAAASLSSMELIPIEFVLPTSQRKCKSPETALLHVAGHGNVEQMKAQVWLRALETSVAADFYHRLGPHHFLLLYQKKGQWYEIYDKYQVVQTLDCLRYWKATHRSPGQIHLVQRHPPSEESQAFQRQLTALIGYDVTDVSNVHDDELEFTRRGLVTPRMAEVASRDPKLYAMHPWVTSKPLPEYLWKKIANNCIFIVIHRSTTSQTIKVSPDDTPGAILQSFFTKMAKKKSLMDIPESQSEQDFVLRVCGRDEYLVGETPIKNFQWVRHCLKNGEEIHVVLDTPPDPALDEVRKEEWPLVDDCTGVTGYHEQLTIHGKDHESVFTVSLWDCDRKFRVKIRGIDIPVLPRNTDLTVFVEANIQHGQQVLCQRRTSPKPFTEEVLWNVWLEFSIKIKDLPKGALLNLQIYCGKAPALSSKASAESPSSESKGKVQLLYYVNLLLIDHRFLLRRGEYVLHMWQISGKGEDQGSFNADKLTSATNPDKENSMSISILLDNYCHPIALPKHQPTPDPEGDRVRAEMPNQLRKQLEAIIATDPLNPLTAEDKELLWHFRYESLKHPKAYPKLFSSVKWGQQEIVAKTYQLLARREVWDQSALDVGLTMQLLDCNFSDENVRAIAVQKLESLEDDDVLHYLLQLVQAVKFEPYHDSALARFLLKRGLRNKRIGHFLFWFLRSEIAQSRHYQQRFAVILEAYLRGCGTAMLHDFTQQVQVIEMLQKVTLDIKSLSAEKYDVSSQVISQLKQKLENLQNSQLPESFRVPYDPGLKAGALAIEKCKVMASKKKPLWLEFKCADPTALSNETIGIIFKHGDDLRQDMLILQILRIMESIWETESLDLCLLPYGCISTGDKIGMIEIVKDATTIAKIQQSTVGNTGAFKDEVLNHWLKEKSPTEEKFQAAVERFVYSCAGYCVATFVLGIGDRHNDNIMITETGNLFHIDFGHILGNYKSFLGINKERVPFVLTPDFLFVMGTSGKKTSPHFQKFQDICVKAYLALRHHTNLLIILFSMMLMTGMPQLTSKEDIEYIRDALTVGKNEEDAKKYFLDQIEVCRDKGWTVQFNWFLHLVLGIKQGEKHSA
Test [3] has as its target T1, Phosphatidylinositol 4,5-bisphosphate 3-kinase catalytic subunit delta isoform (Homo sapiens, UniProt O00329).
T1 sequence (O00329 whole entry): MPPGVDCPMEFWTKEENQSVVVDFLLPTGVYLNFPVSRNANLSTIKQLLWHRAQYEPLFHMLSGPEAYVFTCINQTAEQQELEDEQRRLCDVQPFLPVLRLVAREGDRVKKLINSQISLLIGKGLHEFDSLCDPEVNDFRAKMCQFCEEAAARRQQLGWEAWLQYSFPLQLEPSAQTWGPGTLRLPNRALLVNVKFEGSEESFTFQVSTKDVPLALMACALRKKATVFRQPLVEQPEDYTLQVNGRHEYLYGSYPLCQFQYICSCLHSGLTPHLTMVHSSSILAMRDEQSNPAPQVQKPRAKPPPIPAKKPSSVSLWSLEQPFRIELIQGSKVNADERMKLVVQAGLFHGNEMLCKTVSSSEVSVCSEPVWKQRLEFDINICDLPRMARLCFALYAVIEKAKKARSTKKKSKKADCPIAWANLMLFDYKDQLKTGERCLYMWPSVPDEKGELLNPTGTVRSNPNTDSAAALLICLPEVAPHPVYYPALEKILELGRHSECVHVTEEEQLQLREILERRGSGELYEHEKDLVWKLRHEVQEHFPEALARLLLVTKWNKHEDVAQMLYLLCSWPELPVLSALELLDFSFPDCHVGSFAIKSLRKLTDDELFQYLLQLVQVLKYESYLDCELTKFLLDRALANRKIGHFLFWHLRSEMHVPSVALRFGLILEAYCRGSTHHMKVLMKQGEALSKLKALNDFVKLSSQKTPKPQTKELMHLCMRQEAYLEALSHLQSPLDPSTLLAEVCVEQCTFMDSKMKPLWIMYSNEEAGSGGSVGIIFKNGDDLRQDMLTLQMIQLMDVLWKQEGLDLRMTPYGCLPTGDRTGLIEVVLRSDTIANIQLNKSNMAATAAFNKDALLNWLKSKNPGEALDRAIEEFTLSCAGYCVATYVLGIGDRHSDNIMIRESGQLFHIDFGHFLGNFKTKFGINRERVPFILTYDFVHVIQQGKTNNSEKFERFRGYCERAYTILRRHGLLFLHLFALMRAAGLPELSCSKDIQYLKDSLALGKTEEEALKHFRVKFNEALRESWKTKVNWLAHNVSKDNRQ
Briefly: Inhibition of p110 delta (unknown origin).

In test [4] the target is Phosphatidylinositol 4,5-bisphosphate 3-kinase catalytic subunit alpha isoform (Homo sapiens, UniProt P42336). Briefly: Inhibition of p110 alpha (unknown origin).
Sequence of Phosphatidylinositol 4,5-bisphosphate 3-kinase catalytic subunit alpha isoform (P42336 whole entry, canonical isoform): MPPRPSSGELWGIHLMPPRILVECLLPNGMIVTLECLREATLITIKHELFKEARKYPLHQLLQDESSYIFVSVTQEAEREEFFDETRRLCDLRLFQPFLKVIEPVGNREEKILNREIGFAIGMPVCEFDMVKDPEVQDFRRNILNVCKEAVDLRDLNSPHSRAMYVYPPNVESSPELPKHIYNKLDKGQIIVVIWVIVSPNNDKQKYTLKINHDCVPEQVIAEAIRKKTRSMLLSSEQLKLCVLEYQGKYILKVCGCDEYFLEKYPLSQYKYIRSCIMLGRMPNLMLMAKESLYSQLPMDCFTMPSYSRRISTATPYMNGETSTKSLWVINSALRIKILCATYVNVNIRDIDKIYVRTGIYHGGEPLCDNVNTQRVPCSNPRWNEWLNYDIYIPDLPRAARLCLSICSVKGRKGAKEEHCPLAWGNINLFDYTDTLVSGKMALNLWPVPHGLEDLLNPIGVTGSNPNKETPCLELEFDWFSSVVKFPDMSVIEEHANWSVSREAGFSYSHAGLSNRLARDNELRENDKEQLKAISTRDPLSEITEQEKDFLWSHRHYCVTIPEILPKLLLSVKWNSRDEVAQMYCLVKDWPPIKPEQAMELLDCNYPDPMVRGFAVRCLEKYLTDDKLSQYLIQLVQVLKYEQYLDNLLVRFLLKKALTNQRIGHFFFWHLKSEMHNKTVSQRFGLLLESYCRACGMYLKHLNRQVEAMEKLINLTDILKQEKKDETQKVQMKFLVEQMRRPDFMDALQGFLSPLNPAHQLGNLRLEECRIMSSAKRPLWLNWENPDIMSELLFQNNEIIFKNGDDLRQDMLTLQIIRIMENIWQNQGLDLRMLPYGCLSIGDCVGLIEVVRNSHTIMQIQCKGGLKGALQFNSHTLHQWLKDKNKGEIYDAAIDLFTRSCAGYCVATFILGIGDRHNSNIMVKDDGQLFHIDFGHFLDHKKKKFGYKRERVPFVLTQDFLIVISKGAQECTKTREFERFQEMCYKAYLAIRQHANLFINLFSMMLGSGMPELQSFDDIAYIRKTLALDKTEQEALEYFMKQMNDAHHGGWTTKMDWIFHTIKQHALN
The next test has as its system SK-OV-3. Briefly: Growth inhibition of human SK-OV-3 cells assessed as reduction in cell viability incubated for 48 hrs by SRB assay. The test is classed as functional. (In general: Sulforhodamine B stains cellular protein and so reports cell mass.)
In the next test the test system is OVCAR-8. Briefly: Growth inhibition of human OVCAR-8 cells assessed as reduction in cell viability incubated for 48 hrs by SRB assay. The test is classed as functional.
The next test relates to RXF 631. Briefly: Growth inhibition of human RXF 631 cells assessed as reduction in cell viability incubated for 48 hrs by SRB assay. Type of test: functional.
A further test relates to NCI-H460. Briefly: Growth inhibition of human NCI-H460 cells assessed as reduction in cell viability incubated for 48 hrs by SRB assay. The test is classed as functional.

Sequence of Phosphatidylinositol 4,5-bisphosphate 3-kinase catalytic subunit beta isoform (P42338 whole entry, canonical isoform): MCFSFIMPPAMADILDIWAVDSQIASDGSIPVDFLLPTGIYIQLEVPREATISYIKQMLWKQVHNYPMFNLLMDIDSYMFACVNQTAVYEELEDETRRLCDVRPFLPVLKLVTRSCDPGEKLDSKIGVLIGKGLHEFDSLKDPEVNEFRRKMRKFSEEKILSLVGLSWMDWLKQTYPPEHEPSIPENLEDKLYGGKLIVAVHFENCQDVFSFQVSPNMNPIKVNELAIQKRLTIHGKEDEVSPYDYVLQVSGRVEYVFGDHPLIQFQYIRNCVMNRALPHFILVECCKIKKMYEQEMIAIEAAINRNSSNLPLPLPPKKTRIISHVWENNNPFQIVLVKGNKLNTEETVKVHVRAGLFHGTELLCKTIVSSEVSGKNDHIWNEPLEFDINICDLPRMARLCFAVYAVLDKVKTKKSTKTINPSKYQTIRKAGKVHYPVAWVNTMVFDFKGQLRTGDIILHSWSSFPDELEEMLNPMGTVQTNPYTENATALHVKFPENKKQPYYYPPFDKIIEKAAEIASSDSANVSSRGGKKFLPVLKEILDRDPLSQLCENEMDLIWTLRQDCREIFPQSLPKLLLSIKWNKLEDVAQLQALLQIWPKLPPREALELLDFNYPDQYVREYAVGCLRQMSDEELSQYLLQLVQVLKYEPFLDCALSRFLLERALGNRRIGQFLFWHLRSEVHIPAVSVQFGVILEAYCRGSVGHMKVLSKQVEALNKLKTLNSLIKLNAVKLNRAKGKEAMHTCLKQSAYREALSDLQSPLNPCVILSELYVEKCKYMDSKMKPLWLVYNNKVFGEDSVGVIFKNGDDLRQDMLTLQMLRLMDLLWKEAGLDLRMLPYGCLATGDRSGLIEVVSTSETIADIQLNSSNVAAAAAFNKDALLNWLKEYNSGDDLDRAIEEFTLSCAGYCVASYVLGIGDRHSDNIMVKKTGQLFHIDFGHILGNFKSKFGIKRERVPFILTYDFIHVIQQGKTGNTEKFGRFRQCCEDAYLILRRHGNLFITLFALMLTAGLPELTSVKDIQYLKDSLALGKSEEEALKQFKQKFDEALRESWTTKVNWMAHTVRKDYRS

For orientation: IC50 means the concentration that gives 50% inhibition. `COc1cc(Nc2nc3ccccc3nc2NS(=O)(=O)c2ccc(NC(=O)c3ccc(C)c(OC)c3)cc2)cc(OC)c1` came in with an IC50 in test [1] of 113 nM.
For the molecule `COc1ncc(-c2ccc3nccc(-c4ccnnc4)c3c2)cc1NS(=O)(=O)c1ccc(F)cc1F` [OMIPALISIB], the 50% inhibitory concentration (IC50) in test [2] worked out at 1 nM.
As to `COc1ccc(Cl)c(Nc2nc3ccccc3nc2NS(=O)(=O)c2cccc(NC(=O)C(C)(C)N)c2)c1` [PILARALISIB], the IC50 is 36 nM in test [3] and 23 nM in test [2].
In the case of `C=CCN(/C=C1/C(=O)O[C@H](COC)[C@@]2(C)C1=C(O)C(=O)C1=C2[C@H](OC(C)=O)C[C@]2(C)C(=O)CC[C@@H]12)CC=C` [SONOLISIB], the half-inhibitory concentration (IC50) in test [3] is 3 nM; in test [1] it was more than 300 nM; in test [4] it was 6 nM.
As a reminder, the GI50 is the concentration at which growth is held to half of that of the control. Regarding `FC(F)c1nc2ccccc2n1-c1nc(N2CCOCC2)nc(N2CCOCC2)n1` [ZSTK-474], the GI50 in the test with SK-OV-3 is 398 nM; with OVCAR-8, 1260 nM; with RXF 631 it was 316 nM; in the test with NCI-H460, 372 nM.
